As a reminder, the TGI is the concentration giving total growth inhibition. Lower therefore signals greater sensitivity of the cells.

Structures are written as SMILES.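 Briefly, cells in 96-well plates were exposed to five compound concentrations for 48 h, and endpoints were estimated by linear interpolation. TGI: concentration producing complete growth inhibition.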

Experiment in all cases: DTP human tumour cell line panel, 48 h
Experiment [1] deals with UACC-257 melanoma.
The test system of experiment [2] is ACHN renal.
Experiment [3] has as its system COLO 205 colon.
Experiment [4] relates to IGROV1 ovarian.
In experiment [5] the test system is RXF 393 renal.
The subject of experiment [6] is HCC-2998 colon.
Experiment [7] relates to BT-549 breast.
In experiment [8] the test system is SF-268 CNS.
Experiment [9] deals with CAKI-1 renal.
Experiment [10] deals with NCI-H460 lung.
In experiment [11] the test system is SNB-75 CNS.

Consider `COc1ccc(OC)c2c1C[C@@H]1C(C#N)N3[C@H](Cc4c(OC)ccc(OC)c4[C@@H]3C)C(=O)N1[C@H]2C` (stereo partly drawn), for which the TGI in experiment [1] was determined as 6.96 µM; in experiment [2], 9.53 µM; in [3], 3.52 µM; in [4] it was 16.8 µM; in experiment [5] it was 3.44 µM; in experiment [6] it was 14.4 µM. Further, the concentration for total growth inhibition (TGI) in experiment [7] turned out to be 4.09 µM; in [8] it was 6.71 µM; in experiment [9], 30.3 µM; in experiment [10] it was 48 µM; in experiment [11], 5.02 µM.
For `Brc1ccc(-c2ccc(-c3ccc(Br)s3)s2)s1`, the TGI in experiment [1], in experiment [2], in experiment [3], in [4], in experiment [5] and in experiment [6] was above 100 µM in each case. The TGI in experiment [7], in experiment [8], in experiment [10] and in experiment [11] was above 100 µM in each case.
With `C[N+](C)(C)CCCCCc1c2nc(c(CCCCC[N+](C)(C)C)c3ccc([nH]3)c(CCCCC[N+](C)(C)C)c3ccc([nH]3)c(CCCCC[N+](C)(C)C)c3nc1C=C3)C=C2`, the TGI is above 100 µM in experiment [1]; above 100 µM in [2]; above 100 µM in experiment [3]; above 100 µM in [4]; 7.32 µM in [5]; above 100 µM in experiment [6]. For the same compound, the TGI in experiment [7], in experiment [8], in experiment [9], in [10] and in experiment [11] was above 100 µM each time.
Consider `C#CCNC(Cc1ccccc1)C(=O)O` (stereo not drawn), for which the TGI in [1], in experiment [2], in [3], in experiment [4], in [5] and in experiment [6] was above 100 µM throughout. Also, the TGI in experiment [7], in experiment [8], in [9], in experiment [10] and in [11] was above 100 µM each time.
Consider `CC1CCN(c2nnc(Cl)cc2C(=O)c2ccccc2)CC1`, for which the concentration for total growth inhibition (TGI) in experiment [1] was 63.2 µM; in [2], above 100 µM; in [3] it was 46.9 µM; in [4], above 100 µM; in experiment [5], 53.9 µM; in [6], 96.6 µM. Also, the TGI is above 100 µM in experiment [7]; 3.04 µM in [8]; 34 µM in [9]; above 100 µM in experiment [10]; 70 µM in experiment [11].
For the compound `O=C(/C=C1\N=C(c2ccccc2)N(c2ccc3c(c2)Sc2cc(N4C(=O)/C(=C/C(=O)/C=C/c5ccccc5)N=C4c4ccccc4)ccc2N3)C1=O)/C=C/c1ccccc1`, the TGI in experiment [1] is 83 µM; in experiment [2] it was above 100 µM; in experiment [3], above 100 µM; in experiment [4], above 100 µM; in experiment [5] it was above 100 µM; in experiment [6] it was above 100 µM. Moreover, the TGI in experiment [7] is 52.6 µM; in [8], above 100 µM; in [9] it was above 100 µM; in [10] it was above 100 µM; in experiment [11], 45.6 µM.
Turning to `C=C1C(=O)OC2C(C)C3C=CC(=O)[C@@]3(C)C(OC(=O)/C(C)=C/C)C1[C@@H]2OC(C)=O` (stereo partly drawn), the TGI is 1.66 µM in experiment [1]; 1.68 µM in [2]; 0.906 µM in experiment [3]; 2.05 µM in [4]; 0.61 µM in experiment [5]; 3.2 µM in experiment [6]. Further, the TGI in experiment [7] turned out to be 0.682 µM; in experiment [8], 3.22 µM; in experiment [9], 1.61 µM; in [10] it was 1.33 µM; in [11], 2.98 µM.
Regarding `O=C(O)CCCN1CCCCC1`, the TGI in [1], in [2], in experiment [4], in [5], in experiment [6] and in experiment [7] was above 100 µM each time. Besides, the TGI in experiment [8], in experiment [9], in experiment [10] and in [11] was above 100 µM throughout.
Regarding `COc1cc(/C=C\c2ccc(SC)cc2)cc(OC)c1OC`, the TGI in experiment [2] is above 100 µM; in experiment [3] it was 0.108 µM; in experiment [4], above 17.1 µM; in experiment [5], 0.0402 µM; in experiment [6], 2.17 µM; in experiment [7] it was above 100 µM. Also, the results for the TGI in [8], in experiment [10] and in [11] were 56.1 µM, above 49.3 µM and above 100 µM, respectively.
As to `COC(=O)c1ccc(/C=C/C2=CC(=O)C=CC2=O)cc1`, the TGI in [1] is 34.8 µM; in [2] it was 32.7 µM; in [3], above 52.5 µM; in experiment [4], 39.1 µM; in experiment [5], 42.2 µM; in experiment [6], 38.5 µM. For the same compound, the TGI in experiment [7] is 26.6 µM; in experiment [8], 42.9 µM; in experiment [9], 30.5 µM; in [10], above 64.6 µM; in experiment [11] it was 99.4 µM.
As for `COc1ccc2c(c1)CCC(CN1CCN(CCOC(c3ccc(F)cc3)c3ccc(F)cc3)CC1)=C2`, the TGI in experiment [1] is 28.1 µM; in [2] it was above 100 µM; in experiment [3], 10.4 µM; in experiment [4] it was above 100 µM; in experiment [5] it was 26.8 µM; in [6], 19 µM. Besides, the TGI in [7] is 35.6 µM; in [8] it was above 100 µM; in experiment [9], above 100 µM; in [10], 34.2 µM; in [11], above 100 µM.
As for `CC(C)(C)c1cc(C2COC(=O)COCCOCC(=O)OCCOCCO2)cc(C(C)(C)C)c1O` (stereo not drawn), the TGI was above 100 µM in [1]; 37.2 µM in [2]; above 100 µM in experiment [3]; above 100 µM in experiment [4]; 47 µM in experiment [5]; 43 µM in experiment [6]. The TGI in experiment [7] is above 77.7 µM; in experiment [8], above 90.7 µM; in experiment [9], 33.4 µM; in experiment [10], above 100 µM; in experiment [11], 49.6 µM.
